In PubChem BioAssay (NCI):
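The compound was tested at five concentrations on cells cultured in 96-well plates, with a 48-hour exposure period. The concentration for 50% growth inhibition is given as GI50. TGI marks complete inhibition of growth.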

These compounds were tested on LOX IMVI melanoma (assay: NCI tumour cell line growth inhibition, 48 h).

Point of comparison: NCc1ccccc1-c1c2nc(c(-c3ccccc3CN)c3ccc([nH]3)c(-c3ccccc3CN)c3nc(c(-c4ccccc4CN)c4ccc1[nH]4)C=C3)C=C2, TGI 56.3 µM. Against it:
- CCC(/C=C/C1OC(=O)C=CC1C)=C\C(C)C/C=C/C(C)=C/C(C)C(=O)C(C)C(O)C(C)C/C(C)=C/C(=O)O (centres undefined) — 47000-fold lower, 0.00119 µM
- CC1(C)N=C(N)N=C(N)N1c1ccc(CCc2ccccc2)cc1 — higher, > 100 µM
- CN(C)CCCN1CCC2(CCC(C(C)(C)C)CC2)CC1 — 17-fold lower, 3.22 µM
- Cc1[nH]nc(C(F)(F)F)c1N=NN1CCOCC1 — 3.1-fold lower, 18.3 µM
- S=C(S)NCNC(=S)S.[Zn+2] — higher, > 100 µM
- CC1(CCOCc2ccccc2)NC(=O)NC1=O (centres undefined) — higher, > 100 µM
- O=C(Cn1c[n+](CC(=O)c2ccc(-c3ccccc3)cc2)c2ccccc21)Nc1cccc2cccnc12 — 19-fold lower, 3.03 µM
- O=C(O)CCC(NC(=O)c1ccc(Nc2nc3cc(C(F)(F)F)ccc3nc2-c2ccccc2)cc1)C(=O)O (centres undefined) — higher, > 100 µM
- c1ccc(CCNc2ccccn2)nc1 — higher, > 100 µM

O=C(Cn1c[n+](CC(=O)c2ccc(-c3ccccc3)cc2)c2ccccc21)Nc1cccc2cccnc12 showed a GI50 of 1.54 µM.

Each compound was assayed on MDA-MB-231 breast (assay: NCI tumour cell line growth inhibition, 48 h).

Point of comparison: CN(C)CCCN1CCC2(CCC(C(C)(C)C)CC2)CC1, TGI 3.91 µM. Against it:
- Cn1c(=O)c(-c2ccccc2)c(N=[N+]=[N-])c2ccccc21 — higher, > 100 µM
- Cc1[nH]nc(C(F)(F)F)c1N=NN1CCOCC1 — 6.9-fold higher, 27.1 µM
- S=C(S)NCNC(=S)S.[Zn+2] — higher, > 100 µM
- CC1(CCOCc2ccccc2)NC(=O)NC1=O (centres undefined) — higher, > 100 µM
- c1ccc(CCNc2ccccn2)nc1 — higher, > 100 µM

What follows are compounds tested on SF-295 CNS (assay: NCI tumour cell line growth inhibition, 48 h).

Point of comparison: Cc1[nH]nc(C(F)(F)F)c1N=NN1CCOCC1, TGI 28.1 µM. Against it:
- Cn1c(=O)c(-c2ccccc2)c(N=[N+]=[N-])c2ccccc21 — higher, > 100 µM
- CCC(/C=C/C1OC(=O)C=CC1C)=C\C(C)C/C=C/C(C)=C/C(C)C(=O)C(C)C(O)C(C)C/C(C)=C/C(=O)O (centres undefined) — 12-fold lower, 2.39 µM
- CC1(C)N=C(N)N=C(N)N1c1ccc(CCc2ccccc2)cc1 — higher, > 100 µM
- CN(C)CCCN1CCC2(CCC(C(C)(C)C)CC2)CC1 — 7.1-fold lower, 3.96 µM
- S=C(S)NCNC(=S)S.[Zn+2] — higher, > 100 µM
- CC1(CCOCc2ccccc2)NC(=O)NC1=O (centres undefined) — higher, > 100 µM
- O=C(Cn1c[n+](CC(=O)c2ccc(-c3ccccc3)cc2)c2ccccc21)Nc1cccc2cccnc12 — 8.6-fold lower, 3.26 µM
- CC(OC(C)(C)C)[C@H](NC(=O)OCC(Cl)(Cl)Cl)C(=O)O (some centres undefined) — higher, > 100 µM
- O=C(O)CCC(NC(=O)c1ccc(Nc2nc3cc(C(F)(F)F)ccc3nc2-c2ccccc2)cc1)C(=O)O (centres undefined) — higher, > 100 µM
- c1ccc(CCNc2ccccn2)nc1 — higher, > 100 µM

Point of comparison: O=C(Cn1c[n+](CC(=O)c2ccc(-c3ccccc3)cc2)c2ccccc21)Nc1cccc2cccnc12, GI50 1730 nM. Against it:
- CCC(/C=C/C1OC(=O)C=CC1C)=C\C(C)C/C=C/C(C)=C/C(C)C(=O)C(C)C(O)C(C)C/C(C)=C/C(=O)O (centres undefined) — 97000-fold lower, 0.0179 nM

The compounds below were run on MALME-3M melanoma (assay: NCI tumour cell line growth inhibition, 48 h).

Point of comparison: Cn1c(=O)c(-c2ccccc2)c(N=[N+]=[N-])c2ccccc21, TGI 87.8 µM. Against it:
- CCC(/C=C/C1OC(=O)C=CC1C)=C\C(C)C/C=C/C(C)=C/C(C)C(=O)C(C)C(O)C(C)C/C(C)=C/C(=O)O (centres undefined) — 14-fold lower, 6.29 µM
- CC1(C)N=C(N)N=C(N)N1c1ccc(CCc2ccccc2)cc1 — not separable, > 80.2 µM
- CN(C)CCCN1CCC2(CCC(C(C)(C)C)CC2)CC1 — 26-fold lower, 3.4 µM
- Cc1[nH]nc(C(F)(F)F)c1N=NN1CCOCC1 — 2.8-fold lower, 31.3 µM
- S=C(S)NCNC(=S)S.[Zn+2] — higher, > 100 µM
- CC1(CCOCc2ccccc2)NC(=O)NC1=O (centres undefined) — higher, > 100 µM
- CC(OC(C)(C)C)[C@H](NC(=O)OCC(Cl)(Cl)Cl)C(=O)O (some centres undefined) — higher, > 100 µM
- O=C(O)CCC(NC(=O)c1ccc(Nc2nc3cc(C(F)(F)F)ccc3nc2-c2ccccc2)cc1)C(=O)O (centres undefined) — higher, > 100 µM
- c1ccc(CCNc2ccccn2)nc1 — higher, > 100 µM

For CCC(/C=C/C1OC(=O)C=CC1C)=C\C(C)C/C=C/C(C)=C/C(C)C(=O)C(C)C(O)C(C)C/C(C)=C/C(=O)O (centres undefined), the GI50 was 0.000217 µM.

These compounds were tested on MOLT-4 leukemia (assay: NCI tumour cell line growth inhibition, 48 h).

Point of comparison: Cc1[nH]nc(C(F)(F)F)c1N=NN1CCOCC1, TGI 5.32 µM. Against it:
- Cn1c(=O)c(-c2ccccc2)c(N=[N+]=[N-])c2ccccc21 — 16-fold higher, 85.4 µM
- CC1(C)N=C(N)N=C(N)N1c1ccc(CCc2ccccc2)cc1 — higher, > 100 µM
- CN(C)CCCN1CCC2(CCC(C(C)(C)C)CC2)CC1 — within 1.5-fold, 5.74 µM
- S=C(S)NCNC(=S)S.[Zn+2] — higher, > 100 µM
- CC1(CCOCc2ccccc2)NC(=O)NC1=O (centres undefined) — higher, > 100 µM
- CC(OC(C)(C)C)[C@H](NC(=O)OCC(Cl)(Cl)Cl)C(=O)O (some centres undefined) — higher, > 100 µM
- O=C(O)CCC(NC(=O)c1ccc(Nc2nc3cc(C(F)(F)F)ccc3nc2-c2ccccc2)cc1)C(=O)O (centres undefined) — higher, > 100 µM

CCC(/C=C/C1OC(=O)C=CC1C)=C\C(C)C/C=C/C(C)=C/C(C)C(=O)C(C)C(O)C(C)C/C(C)=C/C(=O)O (centres undefined) was tested, and the GI50 was 2.33 pM.

These compounds were tested on EKVX NSCLC (assay: NCI tumour cell line growth inhibition, 48 h).

Point of comparison: O=C(Cn1c[n+](CC(=O)c2ccc(-c3ccccc3)cc2)c2ccccc21)Nc1cccc2cccnc12, GI50 1.63 µM. Against it:
- CCC(/C=C/C1OC(=O)C=CC1C)=C\C(C)C/C=C/C(C)=C/C(C)C(=O)C(C)C(O)C(C)C/C(C)=C/C(=O)O (centres undefined) — within 1.5-fold, 1.29 µM

Point of comparison: O=C(Cn1c[n+](CC(=O)c2ccc(-c3ccccc3)cc2)c2ccccc21)Nc1cccc2cccnc12, TGI 4.13 µM. Against it:
- CCC(/C=C/C1OC(=O)C=CC1C)=C\C(C)C/C=C/C(C)=C/C(C)C(=O)C(C)C(O)C(C)C/C(C)=C/C(=O)O (centres undefined) — 2.8-fold higher, 11.4 µM
- CC1(C)N=C(N)N=C(N)N1c1ccc(CCc2ccccc2)cc1 — 22-fold higher, 91.5 µM
- CN(C)CCCN1CCC2(CCC(C(C)(C)C)CC2)CC1 — 4.7-fold higher, 19.4 µM
- Cc1[nH]nc(C(F)(F)F)c1N=NN1CCOCC1 — 5.2-fold higher, 21.3 µM
- S=C(S)NCNC(=S)S.[Zn+2] — higher, > 100 µM
- CC1(CCOCc2ccccc2)NC(=O)NC1=O (centres undefined) — higher, > 100 µM
